Test results reported in US5081118A, “Benzothiazine dioxide derivatives” (Pfizer Inc., priority 1990, dated 1992).
In brackets after ≈: the same amount, converted by molar mass.

Experiments:
physchem = settings: water
[1] = tested on: carrageenin-induced rat foot edema; test: standard carrageenin-induced rat foot edema test, oral; assay type: in vivo; settings: 32 mg./kg. oral (gavage), carrageenin-injected hind paw, 3 h after carrageenin, vs vehicle control, read-out: % Inhibition of edema formation
Protocol: In this test, anti-inflammatory activity is determined as the percent inhibition of edema formation in the hind paw of male albino rats (weighing 150-190 g.) in response to a sub-plantar injection of carrageenin. The carrageenin is injected as a 1% aqueous suspension (0.05 ml.) one hour after oral administration of the drug, which is normally given in the form of an aqueous solution. Edema formation is then assessed by measuring the volume of the injected paw initially as well as three hours after the carrageenin injection. The increase in volume three hours after carrageenin injection constitutes the individual response. Compounds are considered active if the difference in response between the drug-treated animals (six rats/group) and a control group receiving the vehicle alone is significant on comparison with the results afforded by a standard compound like phenylbutazone at 33 mg./kg., via the oral route of administration.
The following oxyethyl oxicam final products of Examples 1B, 1C and 5, respectively, were tested for anti-inflammatory activity in rats, using the standard rat foot edema test, according to the general procedure described by C. A. Winter et al., as first reported in the Proceedings of the Society for Experimental Biology and Medicine, Vol. 111, p. 544 (1962).

[2] = compared with piroxicam at an equivalent dose level and other NSAI agents

Row | SMILES | solubility (physchem) [mg/mL] | inhibition at 32 mg/kg [1] [%] | oral absorption potential, comparison in words [2]
1 | Cc1cccc(NC(=O)C2=C(OCCO)c3ccccc3S(=O)(=O)N2C)n1 [Product of Example 5, 4-(2-hydroxyethyloxy)-2-methyl-N-(6-methyl-2-pyridinyl)-2H-1,2-benzothiazine-3-carboxamide 1,1-dioxide] | – | 13 | –
2 | CN1C(C(=O)Nc2cccc[n+]2CCO)=C([O-])c2ccccc2S1(=O)=O [Product of Example 1C, N-[1-(2-hydroxyethyl)-2-pyridinium]-2-methyl-2H-1,2-benzothiazine-3-carboxamide 1,1-dioxide 4-enolate] | – | 16 | –
3 | CN1C(C(=O)Nc2ccccn2)=C(O)c2ccccc2S1(=O)=O [Piroxicam, 4-hydroxy-2-methyl-N-(2-pyridinyl)-2H-1,2-benzothiazine-3-carboxamide 1,1-dioxide] | 26.5 (≈ 80 mM) | – | –

Now from value to compound, other results behind:

Row | solubility (physchem) [mg/mL] | SMILES | inhibition at 32 mg/kg [1] [%] | oral absorption potential, comparison in words [2]
4 | 0.7 (≈ 1.96 mM) | COc1ccc2c(c1)c(CC(=O)O)c(C)n2C(=O)c1ccc(Cl)cc1 [Indomethacin] | – | –
5 | 0.3 (≈ 1.45 mM) | CC(C)Cc1ccc(C(C)C(=O)O)cc1 (centres unmarked) [Ibuprofen] | – | –
6 | 470 (≈ 1250 mM) | CN1C(C(=O)Nc2ccccn2)=C(OCCO)c2ccccc2S1(=O)=O [Product of Example 1B, 4-(2-hydroxyethyloxy)-2-methyl-N-(2-pyridinyl)-2H-1,2-benzothiazine-3-carboxamide 1,1-dioxide] | 48 | highest oral absorption potential seen in the series of compounds tested
